Counter-ions that a name gives are not always drawn. Like-named read-outs stand apart in the source and are kept apart here.
Assays:
MMP1 [1] = biological target: T1, MMP1 (Homo sapiens (Human), UniProt P03956); experiment: MMP activity assay (fluorogenic substrate), MMP1; format: biochemical; conditions: Table 2; read-out: MM1 IC50
Target sequence in this assay (P03956 100-469, species assumed): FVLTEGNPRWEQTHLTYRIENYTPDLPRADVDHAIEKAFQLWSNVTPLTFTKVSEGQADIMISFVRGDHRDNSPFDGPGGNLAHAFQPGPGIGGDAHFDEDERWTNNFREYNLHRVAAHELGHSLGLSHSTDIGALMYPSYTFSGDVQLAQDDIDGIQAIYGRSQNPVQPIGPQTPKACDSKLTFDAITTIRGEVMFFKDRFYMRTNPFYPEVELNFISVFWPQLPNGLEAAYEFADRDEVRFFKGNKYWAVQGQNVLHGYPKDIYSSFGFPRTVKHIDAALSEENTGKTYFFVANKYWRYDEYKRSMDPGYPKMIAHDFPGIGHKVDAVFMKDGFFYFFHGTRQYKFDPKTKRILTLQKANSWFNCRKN

MMP9 = MMP9 (Homo sapiens, UniProt P14780); experiment: MMP activity assay (fluorogenic substrate), MMP9 catalytic domain; format: biochemical; conditions: Table 2
Method: (§1) MMP activity assays were conducted as follows: MMP2, MMP9, MMP13 catalytic domain was expressed in E. coli in form of inclusion bodies followed by refolding and purification.
(§2) The Protocol of the Activity Assay:
(§3) Stock solution of substrate (Mca-Lys-Pro-Leu-Gly-Leu-Dpa-Ala-Arg-NH2) was prepared in DMSO at a concentration of 6 mM. Assays were performed in an assay buffer (50 mM Tris pH 7.5, 300 mM NaCl, 10 μM ZnSO4, 5 mM CaCl2, 0.005% Brij-35). The final DMSO concentration in all assays was 1.0%. […] The assays were carried out at 37° C. The fluorescence changes, resulting from the substrate cleavage, were detected using excitation at 340 nm and emission wavelength of 405 nm using a Wallac 1420 Microplate Reader. The reaction mixtures were preincubated with the inhibitors for 30 minutes. The reactions were started by the addition of MMP substrate, and the fluorescence intensity changes were measured after 60 minutes. The obtained fluorescence values were normalized and % inhibition values calculated. Dose response curves were determined from 6 concentration points using three fold dilution steps, each concentration point was determined in duplicate. IC50 values were calculated from the dose response curves.

MMP13 [2] = biological target: T2, MMP13 (Homo sapiens (Human), UniProt P45452); experiment: MMP activity assay (fluorogenic substrate), MMP13 catalytic domain; format: biochemical; conditions: Table 2; read-out: MMP13 IC50
Method: as §1, §2
as §3, with “The fluorescence changes, resulting from the substrate cleavage, were detected using excitation at 340 nm and emission wavelength of 405 nm using a Wallac 1420 Microplate Reader.” left out

[3] = Cytotoxicity, alamarBlue viability, MRC-5; format: cell-based; conditions: human, MRC-5 fibroblast cells, 48 hours incubation, read-out: MRC-5 LC50
Method: (§4) Beside the inhibitory effect on MMPs we tested the cytotoxicity of the selected compounds. These measurements were done in parallel on two cell lines. One of them was the healthy human fibroblast cell line MRC-5 while the other was the human colon tumor cell line HCT116. The viability of the cells was monitored using alamarBlue. This dye is reduced by the cells resulting in an increased fluorescent signal which is proportional to the number of living cells. Cells were incubated with the dilutions of the tested compounds for 48 hours then alamarBlue was added to them for 4 hours. After that the fluorescence changes were detected using excitation at 540 nm and emission wavelength of 590 nm by a Wallac 1420 Microplate Reader. IC50 values were determined for the compounds using six concentrations and duplicate points for each concentration.

[4] = Cytotoxicity, alamarBlue viability, HCT116; format: cell-based; conditions: human, HCT116 colon tumor cells, 48 hours incubation, read-out: HCT116 LC50
Method: as §4

MMP-2 = MMP-2 (Rattus norvegicus (Rat), UniProt P33436); experiment: In vitro zymography assay (gelatin), MMP-2; format: biochemical
Method: (§5) MMP-2 and MMP-9 enzymes were isolated from rat hearts and from rat spleen while human, recombinant MMP-1 and MMP-13 enzymes used were commercial. MMP-2, -9, -13 enzymes were separated by electrophoresis during non-reducing conditions on 8% SDS-polyacrylamide gels copolymerized with 2 mg/ml gelatin from porcine skin (Sigma Aldrich) while MMP-1 was separated under the same conditions on 8% SDS-polyacrylamide gels copolymerized with 2 mg/ml casein (Sigma Aldrich). […] In case of MMP-13 p-aminophenylmercuric acetate (APMA) was used for enzyme activation at 37° C. for 30 min. After electrophoresis, gels were washed in 2.5% Triton-X 100 with agitation and then incubated for 20 hrs at 37° C. in enzyme incubation buffer (50 mM Tris-HCl, pH 7.5, containing 5 mM CaCl2, 200 mM NaCl) with or without MMP inhibitor. Zymographic gels were stained in Coomassie Brilliant Blue R-250 and de-stained. Gelatin and casein zymograms were scanned. MMP activity is detected as a white zone on a blue background and the clear bands in the gel can be quantified by densitometry. The obtained density values were measured and % inhibition values calculated (Kupai et al., 2010). The table below summarizes the prescreen inhibition values determined for different MMP inhibitors on MMP1, -2, -9, -13.

isolated rat hearts = experiment: Myocardial ischemia/reperfusion injury in isolated rat hearts (Langendorff), infarct size; format: ex vivo; conditions: 5 μM final concentration; isolated rat hearts, 30 min global ischemia, 120 min reperfusion
Method: Male Wistar rats were anesthetized with diethyl ether, heparin (500 U/kg i.v.) was administered and hearts were isolated. The hearts were assigned to three groups: (i) DMSO control and (ii) Compound 1 (1 μM) and (iii) Compound 1 (10 μM) treated. Stock solution of inhibitors was prepared in DMSO. The final DMSO concentration in all assays was 0.1%. Hearts were perfused in Langendorff mode with constant pressure (100 H2O cm) for 20 min at 37° C. then exposed to global ischemia for 30 min followed by 120 min of reperfusion. The DMSO and inhibitors were dissolved in Krebs-Henseleit buffer and administered only before onset of ischemia for 20 min (pretreatment) and during the first 30 min of reperfusion (FIG. 6). At the end of reperfusion, infarct size (IS) was defined by triphenyltetrazolium chloride staining (Csonka et al., 2010).
In separate experiments hearts were perfused to test cardioprotective effect of ALBH-know compound at 5 μM final concentration. The same protocol was used as mentioned above.

MMP2 = MMP2 (Homo sapiens, UniProt P08253); experiment: MMP activity assay (fluorogenic substrate), MMP2 catalytic domain; format: biochemical; conditions: Table 2; read-out: MMP2 IC50
Method: as §1, §2, §3

MMP13 [5] = biological target: T2, MMP13; experiment: In vitro zymography assay (gelatin), MMP-13; format: biochemical; conditions: % ± SD; for % inhibition MMP-13 (50 kDa): 1 μM; for inhibition at 100 µM: read-out: % inhibition MMP-13 (50 kDa)
Method: as §5

[6] = test system: neonatal rat cardiac myocytes; experiment: Cytoprotective effect in cardiac myocytes subjected to hypoxia and reoxygenation; format: cell-based
Method: Neonatal rat hearts were digested and isolated cardiomyocytes were plated onto 24-well plastic plates at […]. The cells were maintained at 37° C. in a humidified atmosphere of 5% CO2 and 95% air in a CO2 incubator until confluence was reached. Cultures at day 3 were used for treatments. Cells were kept under normoxic or simulated ischemic conditions, i.e. the growth medium was changed to a normoxic or hypoxic solution and the cells were incubated under 95% air and 5% CO2 or 95% N2 and 5% CO2 at 37° C. for 4 h, respectively as described in detail (Gorbe A, Giricz Z, Szunyog A, Csont T, Burley D S, Baxter G F, Ferdinandy P. Role of cGMP-PKG signaling in the protection of neonatal rat cardiac myocytes subjected to simulated ischemia/reoxygenation. Basic Res Cardiol. 105:643-650, 2010). The positive control ilomastate (0.5 microM) and MMP-inhibitors at different effective concentrations (EC 5, EC 10, EC 20, and EC50 as determined in previous test examples) were applied during normoxia or simulated ischemia and also during reoxygenation. The vehicle was DMSO. Cell viability was determined after Calcein A M fluorescent staining as described (Karliner J S, Honbo N, Summers K, Gray M O, Goetzl E J. The lysophospholipids sphingosine-1-phosphate and lysophosphatidic acid enhance survival during hypoxia in neonatal rat cardiac myocytes. J Mol Cell Cardiol, 33:1713-7, 2001). Total cell count was determined after digitonin treatment to permeabilize the cells by using propidium iodine fluorescent staining (Roy S S, Hajnoczky G. Calcium, mitochondria and apoptosis studied by fluorescence measurements. Methods. 46:213-223, 2008).

[7] = test system: healthy human fibroblast cell line MRC-5; experiment: Cytotoxicity, alamarBlue viability, MRC-5; format: cell-based; conditions: 48 hours incubation, read-out: MRC-5 LC50
Method: as §4

[8] = test system: human colon tumor cell line HCT116; experiment: Cytotoxicity, alamarBlue viability, HCT116; format: cell-based; conditions: 48 hours incubation, read-out: HCT116 LC50
Method: as §4

MMP1 [9] = biological target: T1, MMP1; experiment: In vitro zymography assay (casein), MMP-1; format: biochemical; conditions: % ± SD
Method: as §5
Target sequence in this assay (P03956 100-469): as the sequence (P03956 100-469, species assumed) above

[10] = % ± SD, read-out: % inhibition MMP-2 (72 kDa)

Sequence of MMP-2 (P33436 110-662): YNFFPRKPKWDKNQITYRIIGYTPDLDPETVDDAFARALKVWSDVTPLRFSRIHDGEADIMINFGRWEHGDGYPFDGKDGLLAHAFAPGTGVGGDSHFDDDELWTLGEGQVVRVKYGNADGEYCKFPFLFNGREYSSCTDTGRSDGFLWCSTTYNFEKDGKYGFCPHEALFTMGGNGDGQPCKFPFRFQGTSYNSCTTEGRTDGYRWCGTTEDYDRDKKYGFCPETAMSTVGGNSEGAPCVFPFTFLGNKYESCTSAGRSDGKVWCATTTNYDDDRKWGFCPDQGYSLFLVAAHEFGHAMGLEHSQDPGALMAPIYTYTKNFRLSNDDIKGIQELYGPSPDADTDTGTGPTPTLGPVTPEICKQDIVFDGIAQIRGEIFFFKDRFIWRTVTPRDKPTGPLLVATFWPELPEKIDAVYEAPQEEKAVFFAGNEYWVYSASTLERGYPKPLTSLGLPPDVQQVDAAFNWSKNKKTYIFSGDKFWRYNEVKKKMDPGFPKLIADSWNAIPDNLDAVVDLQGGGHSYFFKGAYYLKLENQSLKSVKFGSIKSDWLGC

Row | Compound | IC50 (MMP1 [1]) | IC50 (MMP9) | IC50 (MMP13 [2]) | CC50 at 48 h [3] | CC50 at 48 h [4] | % inhibition MMP-2 (72 kDa) (MMP-2; 1 μM, % ± SD) | inhibition at 100 µM (MMP-2; [10]) | IC50 (MMP2) | also measured
1 | O=C(O)c1csc(CN(Cc2ccc(F)cc2)Cc2ccc(OCc3ccccc3)cc2)n1 [ALBH-known, 2-[({[4-(benzyloxy)phenyl]methyl}[(4-fluorophenyl)methyl]amino)methyl]-1,3-thiazole-4-carboxylic acid, reference compound] | 3.6 µM | 15 µM | 1.62 µM | 33 µM | 3.5 µM | No inhibition | 100% |  | reduction of myocardial IS as compared to vehicle (isolated rat hearts): 72.01±4.96%
2 | O=C(O)c1csc(CN(Cc2ccc(OCc3cccnc3)cc2)Cc2cccnc2)n1 [Compound 10, 2-[({[4-(Pyridin-3-ylmethoxy)phenyl]methyl}(pyridin-3-ylmethyl)amino)methyl]-1,3-thiazole-4-carboxylic acid] | > 500 µM | > 500 µM | 1.5 µM | 20 µM | 20 µM |  |  | > 500 µM | % inhibition MMP-13 (50 kDa) (MMP13 [5]): No inhibition; inhibition at 100 µM (MMP13 [5]): 53.6 ± 18.9%; Cytoprotective effect, % cell survival as compared to vehicle DMSO ([6]; normoxia, EC5 concentration 0.3 microM): 112 ± 3 %; Cytoprotective effect, % cell survival as compared to vehicle DMSO ([6]; normoxia, EC10 concentration 1.0 microM): 112 ± 1 %; Cytoprotective effect, % cell survival as compared to vehicle DMSO ([6]; normoxia, EC20 concentration 3.0 microM): 115 ± 3 %; Cytoprotective effect, % cell survival as compared to vehicle DMSO ([6]; normoxia, EC50 concentration 9.0 microM): 108 ± 1%; Cytoprotective effect, % cell survival as compared to vehicle DMSO ([6]; simulated ischemia, EC5 concentration 0.3 microM): 117 ± 2 %; Cytoprotective effect, % cell survival as compared to vehicle DMSO ([6]; simulated ischemia, EC10 concentration 1.0 microM): 119 ± 2 %; Cytoprotective effect, % cell survival as compared to vehicle DMSO ([6]; simulated ischemia, EC20 concentration 3.0 microM): 123 ± 6 %; Cytoprotective effect, % cell survival as compared to vehicle DMSO ([6]; simulated ischemia, EC50 concentration 9.0 microM): 136 ± 2 %
3 | O=C(O)c1csc(CN(Cc2ccc(OCc3ccncc3)cc2)Cc2cccnc2)n1 [Compound 12, 2-{[(Pyridin-3-ylmethyl)({[4-(pyridin-4-ylmethoxy)phenyl]methyl})amino]methyl}-1,3-thiazole-4-carboxylic acid] | > 500 µM | > 500 µM | 8.5 µM | 90 µM | 37 µM |  | 4.78 ± 7.18% | > 500 µM | inhibition at 1 µM (MMP-2; 1 μM, % ± SD, read-out: % inhibition MMP-2 (72 kDa)): 5.59 ± 11.8%
4 | O=C(O)c1csc(CN(Cc2ccc(OCc3ccccc3)cc2)Cc2cccnc2)n1 [Compound 14, 2-[({[4-(Benzyloxy)phenyl]methyl}(pyridin-3-ylmethyl)amino)methyl]-1,3-thiazole-4-carboxylic acid] | 240 µM | > 500 µM | 8 µM | 42 µM | 19 µM | No nhibiton | 100% | 90 µM | 
5 | O=C(O)c1c[nH]c(CN(Cc2ccc(F)cc2)Cc2ccc(OC(c3ccccc3)c3ccccc3)cc2)n1 [Compound 22, 2-[({[4-(Diphenylmethoxy)phenyl]methyl}[(4-fluorophenyl)methyl]amino)methyl]-1H-imidazole-4-carboxylic acid] | 16 µM | 8 µM | 0.28 µM | 2 µM | 0.7 µM |  |  | 35 µM | % inhibition MMP-13 (50 kDa) (MMP13 [5]): No inhibition; inhibition at 100 µM (MMP13 [5]): 71.7 ± 4.49%
6 | O=C(O)c1c[nH]c(CN(Cc2ccc(F)cc2)Cc2ccc(OCc3ccccc3)cc2)n1 [Compound 30 HCl, 2-[({[4-(Benzyloxy)phenyl]methyl}[(4-fluorophenyl)methyl]amino)methyl]-1H-imidazole-4-carboxylic acid] | 33 µM | 100 µM | 3.3 µM |  |  |  |  | 15 µM | CC50 [7]: 15 µM; CC50 [8]: 5.6 µM
7 | O=C(O)c1c[nH]c(CN(Cc2ccc(F)cc2)Cc2ccc(OCc3ccccc3)cc2)n1 [Compound 30, 2-[({[4-(Benzyloxy)phenyl]methyl}[(4-fluorophenyl)methyl]amino)methyl]-1H-imidazole-4-carboxylic acid] | 3.9 µM | 13 µM | 1.76 µM | 30 µM | 6 µM | No inhibition | 100% | 6.6 µM | % inhibition MMP-1 (52 kDa) (MMP1 [9]; 1 μM): No inhibition; % inhibition MMP-1 (55 kDa) (MMP1 [9]; 1 μM): No inhibition; inhibition at 100 µM (MMP1 [9]; read-out: % inhibition MMP-1 (52 kDa)): 63.4 ± 18.3%; inhibition at 100 µM (MMP1 [9]; read-out: % inhibition MMP-1 (55 kDa)): 61.1 ± 6.78%; IC50 (MMP-2; zymography, Table 8, read-out: IC50 on MMP-2): 0.081 µM
